The text below walks through data of ChEMBL document CHEMBL6153114, “Property-Based Design of Xanthine Derivatives as Potent and Orally Available TRPC4/5 Inhibitors for Depression and Anxiety” (J Med Chem, 2025).

Data set [1] can be described thus: in vivo. The conditions noted are these: ICR, mouse, plasma, po, 10 mg/kg.
A short description of data set [2]: in vivo. The conditions noted are these: ICR, mouse, plasma, po, 10 mg/kg. The source holds these as a separate data set.
Data set [3] in a line: in vitro. As to conditions: mouse, liver microsomes. Background: Liver microsomes are a subcellular fraction often used to study metabolism.
Data set [4] in a line: in vitro. As to conditions: human, liver microsomes.
A short description of data set [5]: in vitro. The conditions noted are these: rat, liver microsomes.

Broadly, the half-life is how long it takes for the measured level to halve. In turn, `Cn1c(=O)n(CCCO)c(=O)c2c1nc(Oc1cccc(Cl)c1)n2Cc1ccc(Cl)cc1` registered a concentration at 4 h in “in vivo [1]” of 398 ng/mL. The concentration at 1 h in the data set “in vivo [2]” was found to be 802 ng/mL. Moreover, the half-life at 1 h, 1 µM in the data set “in vitro [3]” came to 12 min; in the data set “in vitro [4]”, 117 min; in the data set “in vitro [5]” it was 4 min.

Turning to `Cn1c(=O)n(CCCO)c(=O)c2c1cc(C1CC1C1CCCC1)n2Cc1ccc(Cl)cc1` (stereo unspecified), the half-life at 1 h, 1 µM came to 4 min in the data set “in vitro [3]”, 12 min in “in vitro [4]” and 1 min in the data set “in vitro [5]”.

With `Cn1c(=O)n(CCCO)c(=O)c2c1cc(/C=C/c1ccc(Cl)cc1)n2Cc1ccc(Cl)cc1`, the half-life at 1 h, 1 µM was 115 min in the data set “in vitro [3]”, 141 min in the data set “in vitro [4]” and 40 min in “in vitro [5]”.
